In patent publication US10945434B2, “Azole derivative, intermediate compound, method for producing azole derivative, agricultural or horticultural chemical agent, and protective agent for industrial material” (priority 2017, dated 2021):

How the values were obtained:
[1] = system: puccinia recondite-causing germs; conditions: in vivo
[2] = system: puccinia recondite-causing germs; experiment: Puccinia Recondite control effect test (spray on wheat); type: in vivo
Septoria tritici = conditions: in vivo
Experimental: The severity of flag leaf and second leaf was evaluated after 50 days lapsed after the second spraying. The control value was calculated from the average severity of the flag leaf and the second leaf. Control value (%)=(1−average severity of treated area/average severity of untreated area)×100

gray mold fungi = experiment: Cucumber gray mold disease control effect test; type: in vivo, Botrytis cinerea; conditions: 100 g/ha; spray on cotyledon cucumber; 4 days after the inoculation
Experimental: The compounds of the present invention were adjusted to a predetermined concentration ([…]) according to Test Example 2 in a cotyledon cucumber (variety: Sagami Hanjiro Cucumber) cultivated using a rectangular plastic pot (6 cm×6 cm), and sprayed at a ratio of 1,000 L/ha. After air-drying the spray leaves, a paper disc (8 mm in diameter) impregnated with the spore solution of gray mold fungi was placed and kept at 20° C. under high humidity conditions. On 4 days after the inoculation, a morbidity of cucumber gray mold disease was examined, and a control value was calculated by the following Equation. Control value (%)=(1−average morbidity of sprayed area/average morbidity of unsprayed area)×100
In addition, the morbidity was determined based on the following Table 12.

[3] = 3.13 g/ha, spray on second leaf stage wheat, 14 days after the inoculation

SMILES	Control value (%) [1] [%]	control value [2, 3] [%]	control value ([2]; in vivo) [%]	control value (Septoria tritici) [%]	control value (gray mold fungi) [%]
COC(=O)C(O)(Cn1cncn1)c1ccc(Oc2ccc(Cl)cc2)cc1Cl (stereo not shown) [Compound I-1, methyl 2-hydroxy-2-(2-chloro-4-(4-chlorophenoxy)phenyl)-3-(1H-1,2,4-triazol-1-yl)propanoate]	99	73			
CC(O)(Cn1cncn1)c1ccc(Oc2ccc(Cl)cc2)cc1C(F)(F)F (stereo not shown)	86		20	88	
COC(=O)C(O)(Cn1cncn1)c1ccc(Oc2cccc(Cl)c2)cc1Cl (stereo not shown) [Compound I-20, methyl 2-(2-chloro-4-(3-chlorophenoxy)phenyl)-2-hydroxy-3-(1H-1,2,4-triazol-1-yl)propanoate]		80			
COC(=O)C(O)(Cn1cncn1)c1ccc(Oc2ccccc2)cc1 (stereo not shown) [control compound B, methyl 2-hydroxy-2-(4-phenoxyphenyl)-3-(1H-1,2,4-triazol-1-yl)propanoate]					0
